From the supplement of paper PMC6045584
± gives the standard deviation of the averaged measurements.

How the values were obtained:
ETOPOSIDE = compound: COc1cc([C@@H]2c3cc4c(cc3[C@@H](O[C@@H]3O[C@@H]5CO[C@@H](C)O[C@H]5[C@H](O)[C@H]3O)[C@H]3COC(=O)[C@H]23)OCO4)cc(OC)c1O [ETOPOSIDE]; assay: surviving fraction relative to DMSO-only wells; higher = less growth inhibition; conditions: exposure time: 5 days
In short: (§1)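 Tumour cell lines were seeded in log phase at 250–500 cells per well into 384-well plates. Starting 24 hours later, inhibitors were present continuously for five days at 0.5, 1, 5, 10, 50, 100, 500 and 1000 nM. Surviving fraction, from CellTiter-Glo luminescence, is normalised to the median of DMSO-only wells. Three screens per line were required, with replicate Pearson r >0.7 and median Z' >0.3 for a line to be kept.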

[1] = compound: Cc1nc(Nc2n[nH]c3c2CN(C(=O)N[C@H](CN(C)C)c2ccccc2)C3(C)C)c2sccc2n1; assay: as above; conditions: exposure time: 5 days
In short: as §1

| Test System | surviving fraction (ETOPOSIDE; 0.5 nM) | surviving fraction (ETOPOSIDE; 1 nM) | surviving fraction (ETOPOSIDE; 5 nM) | surviving fraction (ETOPOSIDE; 10 nM) | surviving fraction (ETOPOSIDE; 50 nM) | surviving fraction (ETOPOSIDE; 100 nM) | surviving fraction (ETOPOSIDE; 500 nM) | surviving fraction (ETOPOSIDE; 1000 nM) | surviving fraction ([1]; 0.5 nM) | surviving fraction ([1]; 1 nM) | surviving fraction ([1]; 5 nM) | surviving fraction ([1]; 10 nM) | surviving fraction ([1]; 50 nM) | surviving fraction ([1]; 100 nM) | surviving fraction ([1]; 500 nM) | surviving fraction ([1]; 1000 nM) |
| --- | --- | --- | --- | --- | --- | --- | --- | --- | --- | --- | --- | --- | --- | --- | --- | --- |
| HU09 BONE | 0.957 ± 0.075 | 0.977 ± 0.09 | 1.12 ± 0.099 | 1 ± 0.023 | 0.972 ± 0.12 | 0.803 ± 0.087 | 0.146 ± 0.0087 | 0.0523 ± 0.0064 | 0.811 ± 0.053 | 0.67 ± 0.084 | 0.473 ± 0.049 | 0.425 ± 0.081 | 0.381 ± 0.046 | 0.339 ± 0.028 | 0.174 ± 0.023 | 0.111 ± 0.007 |
| JIMT1 BREAST | 0.988 ± 0.02 | 1.01 ± 0.026 | 1.03 ± 0.032 | 1.03 ± 0.015 | 1.06 ± 0.022 | 1.07 ± 0.026 | 0.893 ± 0.028 | 0.694 ± 0.028 | 0.993 ± 0.035 | 0.985 ± 0.03 | 0.888 ± 0.029 | 0.839 ± 0.047 | 0.559 ± 0.041 | 0.51 ± 0.041 | 0.398 ± 0.029 | 0.323 ± 0.0049 |
| JURKAT HAEMATOPOIETIC AND LYMPHOID TISSUE | 1.084 ± 0.0084 | 1.1 ± 0.023 | 1.052 ± 0.0055 | 1.011 ± 0.0045 | 0.633 ± 0.043 | 0.261 ± 0.01 | 0.064 ± 0.005 | 0.0413 ± 0.00058 | 1.01 ± 0.032 | 0.939 ± 0.02 | 0.169 ± 0.0038 | 0.095 ± 0.0044 | 0.0877 ± 0.004 | 0.086 ± 0.001 | 0.06 ± 0.001 | 0.051 |
| KPD BONE | 0.955 ± 0.016 | 0.894 ± 0.047 | 1.02 ± 0.026 | 1.02 ± 0.1 | 0.944 ± 0.023 | 0.811 ± 0.047 | 0.393 ± 0.0087 | 0.292 ± 0.014 | 0.632 ± 0.036 | 0.569 ± 0.027 | 0.425 ± 0.042 | 0.344 ± 0.011 | 0.259 ± 0.021 | 0.224 ± 0.027 | 0.0937 ± 0.01 | 0.058 ± 0.0053 |
| LM7 BONE | 0.9 ± 0.14 | 0.941 ± 0.072 | 1.01 ± 0.068 | 1.01 ± 0.13 | 0.994 ± 0.12 | 0.953 ± 0.075 | 0.677 ± 0.034 | 0.449 ± 0.045 | 0.842 ± 0.039 | 0.674 ± 0.036 | 0.51 ± 0.0046 | 0.457 ± 0.046 | 0.386 ± 0.033 | 0.327 ± 0.036 | 0.115 ± 0.006 | 0.0547 ± 0.0084 |
| MCF7 BREAST | 0.9 ± 0.049 | 0.88 ± 0.045 | 0.867 ± 0.079 | 0.9 ± 0.037 | 0.951 ± 0.07 | 0.935 ± 0.014 | 0.702 ± 0.051 | 0.644 ± 0.041 | 0.89 ± 0.077 | 0.857 ± 0.024 | 0.621 ± 0.036 | 0.746 ± 0.035 | 0.547 ± 0.01 | 0.546 ± 0.022 | 0.395 ± 0.019 | 0.486 ± 0.0057 |
| MDAMB134 BREAST | 1.08 ± 0.13 | 1.187 ± 0.0057 | 0.994 ± 0.13 | 0.992 ± 0.099 | 1.03 ± 0.19 | 1.12 ± 0.17 | 1.11 ± 0.065 | 1.02 ± 0.055 | 0.805 ± 0.016 | 0.954 ± 0.014 | 0.909 ± 0.029 | 0.924 ± 0.02 | 1.04 ± 0.044 | 1.02 ± 0.017 | 1.13 ± 0.035 | 0.961 ± 0.2 |
| MDAMB157 BREAST | 0.927 ± 0.12 | 0.938 ± 0.044 | 1.07 ± 0.044 | 0.99 ± 0.055 | 0.895 ± 0.038 | 0.874 ± 0.1 | 0.201 ± 0.046 | 0.221 ± 0.053 | 0.841 ± 0.14 | 0.792 ± 0.055 | 0.623 ± 0.11 | 0.545 ± 0.019 | 0.405 ± 0.055 | 0.29 ± 0.048 | 0.159 ± 0.013 | 0.119 ± 0.021 |
| MDAMB231 BREAST | 0.987 ± 0.022 | 1.03 ± 0.056 | 1.02 ± 0.018 | 0.995 ± 0.018 | 1.04 ± 0.029 | 1.03 ± 0.036 | 0.633 ± 0.017 | 0.454 ± 0.043 | 0.964 ± 0.023 | 0.923 ± 0.029 | 0.667 ± 0.012 | 0.591 ± 0.019 | 0.474 ± 0.0092 | 0.433 ± 0.022 | 0.205 ± 0.0056 | 0.0829 ± 0.0099 |
| MDAMB361 BREAST | 0.921 ± 0.048 | 0.848 ± 0.056 | 0.884 ± 0.055 | 0.946 ± 0.068 | 0.958 ± 0.067 | 0.963 ± 0.091 | 0.954 ± 0.051 | 0.972 ± 0.049 | 1.028 ± 0.0062 | 1.13 ± 0.074 | 1.1 ± 0.065 | 1.02 ± 0.072 | 0.837 ± 0.016 | 0.796 ± 0.054 | 0.5827 ± 0.004 | 0.238 ± 0.0081 |
| MDAMB436 BREAST | 0.957 ± 0.038 | 1 ± 0.053 | 1.05 ± 0.079 | 0.943 ± 0.022 | 0.873 ± 0.11 | 0.822 ± 0.045 | 0.499 ± 0.02 | 0.416 ± 0.059 | 0.952 ± 0.044 | 1 ± 0.066 | 0.932 ± 0.07 | 0.856 ± 0.071 | 0.718 ± 0.016 | 0.61 ± 0.061 | 0.507 ± 0.025 | 0.432 ± 0.03 |
| MDAMB453 BREAST | 1.07 ± 0.098 | 1.13 ± 0.14 | 1.13 ± 0.057 | 1.13 ± 0.07 | 1.16 ± 0.046 | 1.15 ± 0.076 | 1.14 ± 0.12 | 0.984 ± 0.078 | 1.14 ± 0.062 | 1.03 ± 0.037 | 0.648 ± 0.045 | 0.598 ± 0.018 | 0.416 ± 0.038 | 0.359 ± 0.048 | 0.23 ± 0.07 | 0.0803 ± 0.015 |
| MDAMB468 BREAST | 1.1 ± 0.11 | 1.06 ± 0.013 | 1.14 ± 0.065 | 1.13 ± 0.038 | 1.15 ± 0.12 | 1.25 ± 0.089 | 1.09 ± 0.072 | 0.937 ± 0.19 | 1.054 ± 0.0091 | 0.914 ± 0.085 | 0.213 ± 0.02 | 0.19 ± 0.011 | 0.096 ± 0.004 | 0.102 ± 0.0076 | 0.0473 ± 0.0076 | 0.0353 ± 0.0015 |
| MFM223 BREAST | 1.1 ± 0.056 | 1.19 ± 0.14 | 1.17 ± 0.12 | 1.07 ± 0.038 | 1.12 ± 0.035 | 1.06 ± 0.035 | 0.721 ± 0.032 | 0.729 ± 0.052 | 1.11 ± 0.074 | 1.03 ± 0.049 | 0.827 ± 0.015 | 0.637 ± 0.051 | 0.474 ± 0.021 | 0.349 ± 0.038 | 0.14 ± 0.013 | 0.0562 ± 0.005 |
| MG63 BONE | 1.01 ± 0.033 | 0.998 ± 0.038 | 1.05 ± 0.059 | 1.06 ± 0.036 | 1.06 ± 0.052 | 1.05 ± 0.066 | 0.778 ± 0.043 | 0.265 ± 0.016 | 0.921 ± 0.038 | 0.805 ± 0.025 | 0.468 ± 0.0074 | 0.336 ± 0.024 | 0.257 ± 0.016 | 0.275 ± 0.0096 | 0.228 ± 0.015 | 0.227 ± 0.013 |
| MHM BONE | 0.994 ± 0.022 | 0.999 ± 0.011 | 1.01 ± 0.021 | 1.001 ± 0.007 | 1.02 ± 0.016 | 1.02 ± 0.045 | 0.894 ± 0.018 | 0.784 ± 0.024 | 0.953 ± 0.02 | 0.935 ± 0.016 | 0.924 ± 0.034 | 0.906 ± 0.015 | 0.692 ± 0.03 | 0.664 ± 0.022 | 0.559 ± 0.023 | 0.535 ± 0.014 |
| NCIH441 LUNG | 1.03 ± 0.15 | 1.05 ± 0.037 | 1 ± 0.04 | 0.974 ± 0.011 | 1.01 ± 0.053 | 0.829 ± 0.05 | 0.565 ± 0.035 | 0.524 ± 0.016 | 0.955 ± 0.014 | 0.938 ± 0.1 | 0.637 ± 0.057 | 0.632 ± 0.0076 | 0.463 ± 0.026 | 0.452 ± 0.04 | 0.379 ± 0.048 | 0.329 ± 0.018 |
| NOS1 BONE | 1.11 ± 0.12 | 1.01 ± 0.099 | 1.33 ± 0.24 | 1.19 ± 0.12 | 0.977 ± 0.08 | 0.91 ± 0.24 | 0.601 ± 0.075 | 0.623 ± 0.074 | 0.922 ± 0.046 | 0.847 ± 0.078 | 0.695 ± 0.051 | 0.657 ± 0.073 | 0.589 ± 0.062 | 0.559 ± 0.062 | 0.272 ± 0.043 | 0.134 ± 0.0068 |
| NY BONE | 1.01 ± 0.033 | 1.01 ± 0.035 | 1.07 ± 0.032 | 1.09 ± 0.066 | 1.07 ± 0.05 | 1.06 ± 0.03 | 0.797 ± 0.033 | 0.592 ± 0.021 | 0.934 ± 0.041 | 0.725 ± 0.025 | 0.527 ± 0.016 | 0.467 ± 0.031 | 0.447 ± 0.014 | 0.402 ± 0.018 | 0.258 ± 0.011 | 0.0807 ± 0.0051 |
| OS25HAL BONE | 1 ± 0.018 | 0.996 ± 0.018 | 1.01 ± 0.015 | 1.01 ± 0.0071 | 1.07 ± 0.041 | 1.04 ± 0.019 | 0.497 ± 0.022 | 0.231 ± 0.024 | 0.983 ± 0.016 | 0.954 ± 0.024 | 0.597 ± 0.036 | 0.367 ± 0.029 | 0.281 ± 0.007 | 0.258 ± 0.015 | 0.24 ± 0.032 | 0.218 ± 0.0047 |
